The test system of experiment [1] is Mycobacterium tuberculosis. Description: Autofluorescence-based susceptibility testing of positive sputum samples. The experiment is classed as cell-based.
Experiment [2] has as its system Pseudomonas aeruginosa. The settings on record: concentration added to sensitive and resistant strain wells; imaged at 0th and 4th hour; cited from earlier work.

`NC[C@H]1O[C@H](O[C@H]2[C@H](O)[C@@H](O[C@H]3O[C@H](CO)[C@@H](O)[C@H](N)[C@H]3O)[C@H](N)C[C@@H]2N)[C@H](O)[C@@H](O)[C@@H]1O` [kanamycin]: the minimum inhibitory concentration (MIC) in experiment [1] is above 3 mg/L.

For `C[C@@H](O)[C@H]1C(=O)N2C(C(=O)O)=C(S[C@@H]3CN[C@H](C(=O)N(C)C)C3)[C@H](C)[C@H]12` [meropenem], the “Minimum Inhibitory Concentration (MIC) Value” in experiment [2] was 4 mg/L.

What is called MIC is the least concentration at which growth counts as inhibited. High values mean a need for much substance, low ones inhibition by little substance.

The values are drawn from US12644840B2, “Pathogenic susceptibility assessment based on autofluoresence” (Adiuvo D[…] Limited, priority 2021, dated 2026).
